# How the values were obtained:
# [1] = target: T1, wild type AXL (wtAXL) receptor tyrosine kinase (Homo sapiens, UniProt P30530); test: NIH-3T3-AXL cellular tyrosine kinase assay (inhibition of AXL phosphorylation); assay type: cell-based; details: AXL phosphorylation in NIH-3T3-AXL (clone 22) cells, serum-depleted, 2 h with compound, immunoprecipitation / anti-phosphotyrosine blot
# T1 construct: WtAXL cDNA was cloned into vector pLXSN(ESK) and transfected into Phoenix E packaging cells; expressed in transfected cells; host or cells: NIH3T3 N7 mouse fibroblasts, retrovirally infected (clone 22)
# T1 sequence (P30530 26-894): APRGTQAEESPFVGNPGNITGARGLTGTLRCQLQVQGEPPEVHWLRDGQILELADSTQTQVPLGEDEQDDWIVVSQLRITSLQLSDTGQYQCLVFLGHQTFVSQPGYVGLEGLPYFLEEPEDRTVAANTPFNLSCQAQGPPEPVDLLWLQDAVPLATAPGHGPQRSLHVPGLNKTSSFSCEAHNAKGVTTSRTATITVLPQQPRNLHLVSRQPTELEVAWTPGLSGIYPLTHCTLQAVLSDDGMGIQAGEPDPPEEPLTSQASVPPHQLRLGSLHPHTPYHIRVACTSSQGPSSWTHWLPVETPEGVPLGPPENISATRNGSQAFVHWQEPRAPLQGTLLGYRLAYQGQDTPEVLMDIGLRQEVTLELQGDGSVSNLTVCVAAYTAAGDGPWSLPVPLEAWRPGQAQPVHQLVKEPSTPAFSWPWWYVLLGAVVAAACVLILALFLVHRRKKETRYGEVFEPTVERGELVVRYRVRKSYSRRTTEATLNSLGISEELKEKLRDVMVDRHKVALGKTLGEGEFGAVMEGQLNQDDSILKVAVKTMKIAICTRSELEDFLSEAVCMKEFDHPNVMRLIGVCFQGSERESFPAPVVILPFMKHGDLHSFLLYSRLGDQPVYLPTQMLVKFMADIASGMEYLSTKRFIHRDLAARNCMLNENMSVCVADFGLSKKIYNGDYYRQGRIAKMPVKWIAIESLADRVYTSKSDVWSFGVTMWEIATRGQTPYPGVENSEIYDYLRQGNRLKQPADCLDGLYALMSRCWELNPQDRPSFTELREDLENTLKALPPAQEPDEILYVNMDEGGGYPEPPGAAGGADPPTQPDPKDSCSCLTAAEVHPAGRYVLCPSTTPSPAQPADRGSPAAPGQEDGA
# Procedure, shortened: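 NIH3T3 clones stably expressing human wtAXL (puromycin-selected) were exposed to serially diluted compounds for 2 h. AXL was immunoprecipitated from lysates with anti-AXL antibody, and phosphorylation detected by anti-phosphotyrosine (4G10) western blot with ECL.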
melting point [°C],IC50 [1] [µM],SMILES
137 to 140,> 1,"COc1cc2nccc(Oc3ccc(NS(=O)(=O)c4cccc(-c5ncccn5)c4)c(F)c3)c2cc1OC [Example A102, N-[4-(6,7-Dimethoxy-quinolin-4-yloxy)-2-fluoro-phenyl]-3-pyrimidin-2-yl-benzenesulfonamide]"
220 to 222,0.45,"COc1cc2nccc(Oc3ccc(NS(=O)(=O)c4cccc(-c5ccccc5)c4)c(C)c3)c2cc1OC [Example A89, Biphenyl-3-sulfonic acid [4-(6,7-dimethoxy-quinolin-4-yloxy)-2-methyl-phenyl]-amide]"
191 to 194,> 10,"COc1cc2nccc(Oc3ccc(NS(=O)(=O)c4ccc(-c5ccccc5)cc4)cc3)c2cc1OC [Example A81, Biphenyl-4-sulfonic acid [4-(6,7-dimethoxy-quinolin-4-yloxy)-phenyl]-amide]"
165 to 167,> 10,"CCn1cc(S(=O)(=O)Nc2ccc(Oc3cc(C)nc4ccc(F)cc34)cc2)cn1 [Example B21, 1-Ethyl-1H-pyrazole-4-sulfonic acid [4-(6-fluoro-2-methyl-quinolin-4-yloxy)-phenyl]-amide]"
115 to 116,> 10,"COc1cc2nccc(Oc3ccc(NS(=O)(=O)c4ccc5c(c4)CC(=O)N5C)c(C)c3)c2cc1OC [Example A95, 1-Methyl-2-oxo-2,3-dihydro-1H-indole-5-sulfonic acid [4-(6,7-dimethoxy-quinolin-4-yloxy)-2-methyl-phenyl]-amide]"
224 to 225,1.81,"COc1cc2nccc(Oc3ccc(NS(=O)(=O)/C=C/c4ccccc4)c(F)c3)c2cc1OC [Example A16, 2-Phenyl-ethenesulfonic acid [4-(6,7-dimethoxy-quinolin-4-yloxy)-2-fluoro-phenyl]-amide]"
230 to 232,> 3,"COc1cc2nccc(Oc3ccc(NS(=O)(=O)c4ccccc4OC(F)(F)F)c(C)c3)c2cc1OC [Example A112, N-[4-(6,7-Dimethoxy-quinolin-4-yloxy)-2-methyl-phenyl]-2-trifluoromethoxy-benzenesulfonamide]"
175 to 176,0.58,"COc1cc2nccc(Oc3ccc(NS(=O)(=O)CC(C)C)c(F)c3)c2cc1OC [Example A72, 2-Methyl-propane-1-sulfonic acid [4-(6,7-dimethoxy-quinolin-4-yloxy)-2-fluoro-phenyl]-amide]"
145 to 147,> 10,"COc1cc2nccc(Oc3ccc(NS(=O)(=O)c4cc(C)c(NC(C)=O)c(C)c4)cc3)c2cc1OC [Example A66, N-{4-[4-(6,7-Dimethoxy-quinolin-4-yloxy)-phenylsulfamoyl]-2,6-dimethyl-phenyl}-acetamide]"
215 to 217,> 10,Cc1cc(Oc2ccc(NS(=O)(=O)c3ccc(-c4ccccc4)cc3)c(F)c2)c2cccc(C(F)(F)F)c2n1 [Example C15]
104 to 106,0.378,"CCCCS(=O)(=O)Nc1ccc(Oc2ccnc3cc(OCCCN4CCCC(C)C4)c(OC)cc23)c(F)c1 (stereo not drawn) [Example D25, Butane-1-sulfonic acid (3-fluoro-4-{6-methoxy-7-[3-(3-methyl-piperidin-1-yl)-propoxy]-quinolin-4-yloxy}-phenyl)-amide]"
118 to 120,0.74,"COc1cc2nccc(Oc3ccc(NS(=O)(=O)c4cccc5ccccc45)cc3F)c2cc1OC [Example A100, Naphthalene-1-sulfonic acid [4-(6,7-dimethoxy-quinolin-4-yloxy)-3-fluoro-phenyl]-amide]"
240 to 242,< 1,"COc1cc2nccc(Oc3ccc(NS(=O)(=O)c4cc(Cl)cc(Cl)c4)c(F)c3)c2cc1OC [Example A43, 3,5-Dichloro-N-[4-(6,7-dimethoxy-quinolin-4-yloxy)-2-fluoro-phenyl]-benzenesulfonamide]"
232 to 234,> 10,"COc1cc2nccc(Oc3ccc(NS(=O)(=O)c4ccc(Br)c(Cl)c4)cc3)c2cc1OC [Example A117, 4-Bromo-3-chloro-N-[4-(6,7-dimethoxy-quinolin-4-yloxy)-phenyl]-benzenesulfonamide]"
139 to 142,0.211,"COc1cc2c(Oc3ccc(NS(=O)(=O)c4ccccc4C#N)cc3F)ccnc2cc1OCCCN1CCC(C)CC1 [Example D23, 2-Cyano-N-(3-fluoro-4-{6-methoxy-7-[3-(4-methyl-piperidin-1-yl)-propoxy]-quinolin-4-yloxy}-phenyl)-benzenesulfonamide]"
228 to 229,> 10,"COc1cc2c(Oc3ccc(NS(=O)(=O)c4cccc(-c5ccccc5)c4)c(F)c3)ccnc2cc1OCc1ccccc1 [Example D01, Biphenyl-3-sulfonic acid [4-(7-benzyloxy-6-methoxy-quinolin-4-yloxy)-2-fluoro-phenyl]-amide]"
254 to 257,> 3,"COc1cc2nccc(Oc3ccc(NS(=O)(=O)c4ccccc4C(F)(F)F)c(C)c3)c2cc1OC [Example A113, N-[4-(6,7-Dimethoxy-quinolin-4-yloxy)-2-methyl-phenyl]-2-trifluoromethyl-benzenesulfonamide]"
223 to 225,1.4,"COc1cc2nccc(Oc3ccc(NS(=O)(=O)c4c(F)cccc4F)c(F)c3)c2cc1OC [Example A14, N-[4-(6,7-Dimethoxy-quinolin-4-yloxy)-2-fluoro-phenyl]-2,6-difluoro-benzenesulfonamide]"
216 to 217,> 10,"COc1cc2nccc(Oc3ccc(NS(=O)(=O)c4ccc(OC)c5ccccc45)c(C)c3)c2cc1OC [Example A150, 4-Methoxy-naphthalene-1-sulfonic acid [4-(6,7-dimethoxy-quinolin-4-yloxy)-2-methyl-phenyl]-amide]"
255 to 257,> 10,"COc1cc2nccc(Oc3ccc(NS(=O)(=O)c4cc(Cl)ccc4OC)cc3)c2cc1OC [Example A68, 5-Chloro-N-[4-(6,7-dimethoxy-quinolin-4-yloxy)-phenyl]-2-methoxy-benzenesulfonamide]"
195 to 196,2.46,"COc1cc2c(Oc3ccc(NS(=O)(=O)c4cc(F)ccc4F)c(C)c3)ccnc2cc1OCCN1CCOCC1 [Example D09, 2,5-Difluoro-N-{4-[6-methoxy-7-(2-morpholin-4-yl-ethoxy)-quinolin-4-yloxy]-2-methyl-phenyl}-benzenesulfonamide]"
135 to 137,0.128,"COc1cc2c(Oc3ccc(NS(=O)(=O)c4ccc(F)cc4F)cc3F)ccnc2cc1OCCCN1CCC(C)CC1 [Example D19, 2,4-Difluoro-N-(3-fluoro-4-{6-methoxy-7-[3-(4-methyl-piperidin-1-yl)-propoxy]-quinolin-4-yloxy}-phenyl)-benzenesulfonamide]"
179 to 180,> 10,"COc1cc2nccc(Oc3ccc(NS(=O)(=O)C4CC4)c(F)c3)c2cc1OC [Example A33, Cyclopropanesulfonic acid [4-(6,7-dimethoxy-quinolin-4-yloxy)-2-fluoro-phenyl]-amide]"
211 to 213,> 10,"CCn1cc(S(=O)(=O)Nc2ccc(Oc3ccnc4cc(OC)c(OC)cc34)cc2F)cn1 [Example A31, 1-Ethyl-1H-pyrazole-4-sulfonic acid [4-(6,7-dimethoxy-quinolin-4-yloxy)-2-fluoro-phenyl]-amide]"
230 to 232,> 1,"COc1ccc(S(=O)(=O)Nc2ccc(Oc3ccnc4cc(OC)c(OC)cc34)cc2F)cc1F [Example A88, N-[4-(6,7-Dimethoxy-quinolin-4-yloxy)-2-fluoro-phenyl]-3-fluoro-4-methoxy-benzenesulfonamide]"
> 240,> 1,"COc1cc2nccc(Oc3ccc(NS(=O)(=O)c4cc(Cl)cc(Cl)c4O)cc3OC)c2cc1OC [Example A156, 3,5-Dichloro-N-[4-(6,7-dimethoxy-quinolin-4-yloxy)-3-methoxy-phenyl]-2-hydroxy-benzenesulfonamide]"
150 to 152,> 10,"COc1cc2nccc(Oc3ccc(NS(=O)(=O)c4ccc5c(c4)CC(=O)N5C)cc3OC)c2cc1OC [Example A145, 1-Methyl-2-oxo-2,3-dihydro-1H-indole-5-sulfonic acid [4-(6,7-dimethoxy-quinolin-4-yloxy)-3-methoxy-phenyl]-amide]"

# Reference: patent US9206130B2, “Quinoline derivatives as AXL kinase inhibitors” (Max-Planck-Gesellschaft zur Förderung der Wissenschaften …, priority 2008, dated 2015)
